How the values were obtained:
Pyricularia oryzae = assay type: cell-based; settings: 12.5 ppm in PDA culture medium
Leptosphaeria nodorum = experiment: Antifungal activity test (PDA plate, hypha extension inhibition); assay type: cell-based; settings: 0.8 ppm in PDA culture medium
Description: (Antifungal Activity Test against Various Pathogenic Fungi) For each of the compounds I-1 to 27 of the present invention and the comparative compounds (a) to (d), (m-1) and (m-3), 20 mg was weighed and dissolved in 2 ml of dimethylsulfoxide, and a double dilution row in 10 steps was prepared by further using dimethylsulfoxide. A 0.6 ml portion of these solutions was each added to 60 ml of a PDA culture medium (potato-dextrose-agar culture medium) at about 60° C., they were well mixed in a 100 ml Erlenmeyer flask, the solution was poured into a schale and was solidified, the plate culture media containing the compounds according to the present invention with final concentrations of 100, 50.0, 25.0, 12.5, 6.3, 3.2, 1.6, 0.8, 0.4 and 0.2 mg/l were prepared. On the other hand, the specimen bacteria cultured on the plate culture media beforehand was punched by a 4 mm diameter cork borer, and was inoculated on the plate culture media containing the aforementioned chemicals. After the inoculation, the bacteria were cultured at the optimum growth temperature of each bacterium for 1 to 7 days (for this optimum growth temperature, LIST OF CULTURES 1996 Microorganisms 10th edition published by Fermentation Research Institute (Foundation) can be referred to.), and the growth of the bacteria was measured by the diameter of a colony. […] R=100(dc−dt)/dc (Equation 3) [wherein each symbol is shown as follows: R=Hypha extension inhibition rate (%), dc=Diameter of colony on no-treated plate, dt=Diameter of colony on chemical-treated plate.] The results obtained above was evaluated in 5 steps in accordance with the following examination scale. <Growth Inhibition> 5: Hypha extension inhibition rate of 90% or more 4: Hypha extension inhibition rate of from 70% to less than 90% 3: […] 2: […] In addition, the abbreviations in Table 10 are as follows: L.n: Leptosphaeria nodorum

cucumber powdery mildew = experiment: Test of control effect on cucumber powdery mildew; assay type: in vivo; settings: wettable powder 100 mg/l, 100 liters/10 a, cucumber (Sagamihanpakufushinari), examined 9th to 14th day after inoculation
Description: (Test of Control Effect on Cucumber Powdery Mildew) The wettable powders formulated by using each of the compounds I-1 to 27 according to the present invention and the comparative compounds (a) to (d), (m-1) and (m-3) were each diluted and suspended with water to a predetermined concentration (100 mg/l), the suspension was sprinkled over the first to the second leaf period cucumbers (variety: “[…]”) cultivated by using a square plastic pot (size: 6.4 cm×6.4 cm) in a rate of 100 liters/10 a (ares). After the sprinkled leaves were air-dried, the spores were inoculated over the leaves by sprinkling the same with a brush from an infected leaf, a disease was contracted in a glass house (temperature: 20 to 24° C., relative humidity: 20 to 70 RH). On the 9th to 14th day after the inoculation, the infection degree was examined according to the following scale and the control value of each compound was calculated by the following calculation equation 2: (Examination Scale) [table]

Venturia inaequalis = experiment: Antifungal activity test (PDA plate, hypha extension inhibition); assay type: cell-based; settings: 3.2 ppm in PDA culture medium
Description: (Antifungal Activity Test against Various Pathogenic Fungi) For each of the compounds I-1 to 27 of the present invention and the comparative compounds (a) to (d), (m-1) and (m-3), 20 mg was weighed and dissolved in 2 ml of dimethylsulfoxide, and a double dilution row in 10 steps was prepared by further using dimethylsulfoxide. A 0.6 ml portion of these solutions was each added to 60 ml of a PDA culture medium (potato-dextrose-agar culture medium) at about 60° C., they were well mixed in a 100 ml Erlenmeyer flask, the solution was poured into a schale and was solidified, the plate culture media containing the compounds according to the present invention with final concentrations of 100, 50.0, 25.0, 12.5, 6.3, 3.2, 1.6, 0.8, 0.4 and 0.2 mg/l were prepared. On the other hand, the specimen bacteria cultured on the plate culture media beforehand was punched by a 4 mm diameter cork borer, and was inoculated on the plate culture media containing the aforementioned chemicals. After the inoculation, the bacteria were cultured at the optimum growth temperature of each bacterium for 1 to 7 days (for this optimum growth temperature, LIST OF CULTURES 1996 Microorganisms 10th edition published by Fermentation Research Institute (Foundation) can be referred to.), and the growth of the bacteria was measured by the diameter of a colony. […]

wheat powdery mildew = experiment: Test of control effect on wheat powdery mildew; assay type: in vivo; design: Control Value: scale not given here; settings: wettable powder 125 mg/l, 100 liters/10 a, wheat seedlings (Nourin 64), examined 9th to 14th day after inoculation
Description: (Test of Control Effect on Wheat Powdery Mildew) Wettable powders were prepared from compounds of the present invention I-1 to I-27 and comparative compounds (a) to (d), (m-1) and (m-3). The obtained wettable powder was diluted and suspended with water to provide the predetermined concentration (125 mg/l), and was sprinkled onto seedlings of wheat (variety: “Nourin 64”) at the first to the second leaf period which were cultivated using square plastic pots (size: 6.4 cm×6.4 cm) in a rate of 100 liters/10 a (ares). After drying the sprinkled leaves with air, a suspension of wheat powdery mildew spores taken from infected leaves was inoculated by spraying onto the sprinkled leaves. They were supervised in a green house (temperature: 20 to 24° C., relative humidity: 20 to 70 RH). On the 9th to 14th day after the inoculation, the infection degree was examined according to the following scale and the control value of each compound was calculated by the following calculation equation 1. [table]

| Structure (SMILES) | Growth Inhibition P.o (12.5) (Pyricularia oryzae) | Growth Inhibition L.n (0.8) (Leptosphaeria nodorum) | Control Value (cucumber powdery mildew) | Growth Inhibition V.i (3.2) (Venturia inaequalis) | Control Value (wheat powdery mildew) |
| --- | --- | --- | --- | --- | --- |
| CC(Cc1ccc(C(F)(F)F)c(F)c1F)CN(C)Cc1ccc(Cl)nc1 (stereo not shown) [Compound I-10] | 4 (Hypha extension inhibition rate of from 70% to less than 90%) | 4 (Hypha extension inhibition rate of from 70% to less than 90%) | 100 | 4 (Hypha extension inhibition rate of from 70% to less than 90%) | 100 |
| CC(Cc1ccc2c(c1)OC(F)(F)O2)CN(C)Cc1ccc(Cl)nc1 (stereo not shown) [Compound I-24] | 4 (Hypha extension inhibition rate of from 70% to less than 90%) | 5 (Hypha extension inhibition rate of 90% or more) | 100 | 4 (Hypha extension inhibition rate of from 70% to less than 90%) | 100 |

— patent US20040152903A1, “6-chloro-3-pyridylmethylpropylamine derivatives, preparation process thereof and bactericides” (priority 2004, published 2004)
